Conditions: Liquid, Pulse-echo method

C=CCCCCCCCCCCCCCC [1-hexadecene]
speed of sound [m/s]
Conditions	373.15 K	383.15 K	393.15 K	403.15 K	413.15 K	423.15 K	433.15 K
100 kPa	1073.8	1041.7	1010.2	979.2	948.7	918.8	889.2
2500 kPa	1091.4	1060.1	1029.3	999.1	969.4	940.3	911.7
5000 kPa	1109.2	1078.6	1048.5	1019	990.1	961.8	934
10000 kPa	1143.1	1113.6	1084.8	1056.6	1029	1002	975.7
15000 kPa	1175	1146.5	1118.8	1091.6	1065.2	1039.3	1014.1
20000 kPa	1205.2	1177.7	1150.8	1124.6	1099	1074.1	1049.8
30000 kPa	1261.4	1235.3	1209.9	1185.2	1161.2	1137.8	1115
40000 kPa	1313	1288.1	1263.8	1240.3	1217.4	1195.2	1173.6
60000 kPa	1405.5	1382.4	1360	1338.2	1317	1296.5	1276.6
80000 kPa	1487.6	1465.8	1444.6	1424.1	1404.2	1384.9	1366.2
100000 kPa	1561.6	1540.9	1520.8	1501.3	1482.4	1464	1446.2
